The record followed here is ChEMBL document CHEMBL1136034, “Selective urokinase-type plasminogen activator (uPA) inhibitors. Part 1: 2-Pyridinylguanidines” (Bioorg Med Chem Lett, 2002).

The target in assay [1] is T1, Plasminogen (Homo sapiens, UniProt P00747). The experiment in a line: Inhibition of human plasmin with Chromozym-PL at 1 mM.
In assay [2] the target is T2, Tissue-type plasminogen activator (Homo sapiens, UniProt P00750). Put plainly: Inhibition of human tissue plasminogen activator stimulator at 1 mM.
Target sequence in this assay (P00750 36-562 limits assumed): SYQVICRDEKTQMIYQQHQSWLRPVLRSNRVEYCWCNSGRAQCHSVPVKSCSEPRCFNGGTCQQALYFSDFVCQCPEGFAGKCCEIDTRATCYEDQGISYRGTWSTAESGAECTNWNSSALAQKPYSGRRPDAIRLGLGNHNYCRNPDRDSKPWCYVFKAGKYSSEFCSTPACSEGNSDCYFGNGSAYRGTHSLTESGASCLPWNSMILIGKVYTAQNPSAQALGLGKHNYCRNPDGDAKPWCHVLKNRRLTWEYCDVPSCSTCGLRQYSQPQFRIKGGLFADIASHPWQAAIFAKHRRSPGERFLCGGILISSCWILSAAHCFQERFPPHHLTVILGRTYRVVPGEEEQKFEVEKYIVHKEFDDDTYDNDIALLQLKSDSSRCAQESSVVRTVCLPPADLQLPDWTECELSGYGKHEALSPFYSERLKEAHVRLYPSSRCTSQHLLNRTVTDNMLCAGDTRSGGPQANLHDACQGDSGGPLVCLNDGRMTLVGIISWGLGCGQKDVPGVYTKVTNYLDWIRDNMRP
The target of assay [3] is T1, Plasminogen. The experiment in a line: Ability to inhibit human plasmin using Chromozym-PL as substrate at concentration of 30 uM.
The target in assay [4] is T2, Tissue-type plasminogen activator. Put plainly: Ability to inhibit human tissue plasminogen activator stimulator at concentration of 100 uM.
Target sequence in this assay (P00750 36-562 limits assumed): as above
Assay [5] deals with T3, Urokinase-type plasminogen activator (Homo sapiens, UniProt P00749). Put plainly: Ability to inhibit microPa (calbiochem) and S-2444 (quadratech) as substrate at concentration of 100 uM.
The target of assay [6] is T2, Tissue-type plasminogen activator. Put plainly: Ability to inhibit human tissue plasminogen activator stimulator at concentration of 1 mM.
Target sequence in this assay (P00750 36-562 limits assumed): as above
For assay [7], the target named is T3, Urokinase-type plasminogen activator. Put plainly: In vitro inhibition of HWMT human urokinase Plasminogen activator.
Assay [8] deals with T2, Tissue-type plasminogen activator. The experiment in a line: Ability to inhibit human tissue plasminogen activator stimulator at concentration of 1 uM.
Target sequence in this assay (P00750 36-562 limits assumed): as above
Assay [9] has as its target T3, Urokinase-type plasminogen activator. Put plainly: Ability to inhibit microPa (calbiochem) and S-2444 (quadratech) as substrate at concentration of 1 uM.
The target of assay [10] is T1, Plasminogen. The experiment in a line: Ability to inhibit human plasmin using Chromozym-PL as substrate at concentration of 1 uM.
The target in assay [11] is T1, Plasminogen. Put plainly: Ability to inhibit human plasmin using Chromozym-PL as substrate.
The target of assay [12] is T2, Tissue-type plasminogen activator. The experiment in a line: Ability to inhibit human tissue plasminogen activator stimulator.
Target sequence in this assay (P00750 whole entry): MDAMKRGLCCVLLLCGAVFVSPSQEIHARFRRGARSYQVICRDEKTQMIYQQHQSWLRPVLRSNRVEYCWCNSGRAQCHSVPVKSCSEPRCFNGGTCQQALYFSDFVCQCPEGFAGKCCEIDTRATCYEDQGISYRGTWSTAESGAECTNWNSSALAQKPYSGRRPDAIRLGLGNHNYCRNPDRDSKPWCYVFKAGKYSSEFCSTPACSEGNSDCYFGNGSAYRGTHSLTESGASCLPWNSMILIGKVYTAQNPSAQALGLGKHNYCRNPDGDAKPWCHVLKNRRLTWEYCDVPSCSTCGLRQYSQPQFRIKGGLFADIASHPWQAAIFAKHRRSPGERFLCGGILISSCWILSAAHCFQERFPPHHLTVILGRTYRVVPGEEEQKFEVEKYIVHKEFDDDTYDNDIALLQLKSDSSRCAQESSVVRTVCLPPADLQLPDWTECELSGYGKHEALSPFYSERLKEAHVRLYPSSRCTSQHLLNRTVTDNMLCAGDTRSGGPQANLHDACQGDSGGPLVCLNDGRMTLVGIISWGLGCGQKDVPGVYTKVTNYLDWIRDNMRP
The target is the same in assay [13]. The experiment in a line: Ability to inhibit human tissue plasminogen activator stimulator at concentration of 30 uM.
Target sequence in this assay (P00750 36-562 limits assumed): as the sequence (P00750 36-562 limits assumed) above
Assay [14] concerns the target T3, Urokinase-type plasminogen activator. Put plainly: Ability to inhibit microPa (calbiochem) and S-2444 (quadratech) as substrate at concentration of 30 uM.

A value given as a limit tells only on which side of the number the result lay.

T1 sequence (P00747 97-580 limits assumed): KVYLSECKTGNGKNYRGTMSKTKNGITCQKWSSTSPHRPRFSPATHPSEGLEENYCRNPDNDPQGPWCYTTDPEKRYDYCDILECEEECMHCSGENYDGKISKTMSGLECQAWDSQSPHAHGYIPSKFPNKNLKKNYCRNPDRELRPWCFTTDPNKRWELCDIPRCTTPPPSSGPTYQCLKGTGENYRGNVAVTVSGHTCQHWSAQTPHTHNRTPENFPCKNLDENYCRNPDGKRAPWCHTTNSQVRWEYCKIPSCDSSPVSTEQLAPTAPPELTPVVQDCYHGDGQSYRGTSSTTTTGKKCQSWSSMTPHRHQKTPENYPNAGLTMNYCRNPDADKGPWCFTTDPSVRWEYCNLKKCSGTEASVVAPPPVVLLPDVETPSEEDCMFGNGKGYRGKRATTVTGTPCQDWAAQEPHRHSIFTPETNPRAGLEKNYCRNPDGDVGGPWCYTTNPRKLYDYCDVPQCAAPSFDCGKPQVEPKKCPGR
T1 sequence (P00747 581-810 limits assumed): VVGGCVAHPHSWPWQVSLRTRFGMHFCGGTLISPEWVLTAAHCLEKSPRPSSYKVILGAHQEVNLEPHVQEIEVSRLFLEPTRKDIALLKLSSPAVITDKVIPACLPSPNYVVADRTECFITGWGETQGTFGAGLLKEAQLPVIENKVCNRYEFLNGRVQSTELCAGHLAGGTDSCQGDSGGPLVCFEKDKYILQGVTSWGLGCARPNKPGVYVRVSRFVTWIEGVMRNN

The inhibition is the change of the read-out against control, counted positive when it falls. Higher therefore signals a strong effect. For `N=C(N)Nc1ncc(Br)cc1Cl`, the inhibition (on Plasminogen [1]; in [2]) was below 50% in each case.

For `N=C(N)Nc1cccnn1`, the inhibition (against Plasminogen [3]; in [4]; in [5]) was below 50% throughout.

With `N=C(N)Nc1ncc(Cl)cc1Cl`, the inhibition (against Plasminogen [1]; in assay [2]) was below 50% each time.

Usually Ki stands for a dissociation constant, usually derived from enzyme kinetics or from competition with a known ligand. High values mean a looser hold on the target, low ones a stronger hold on the target. With `Cc1ccnc(NC(=N)N)c1`, the inhibition (in assay [6]; against Plasminogen [1]) was below 50% throughout. Further, the inhibition constant Ki in assay [7] came to 83.8 µM.

Take `N=C(N)Nc1ncccc1O`: the inhibition (on Plasminogen [1]; in assay [2]) was below 50% each time.

`N=C(N)Nc1ccc(Cl)cn1`: the inhibition (against Plasminogen [1]; in assay [2]) was below 50% each time.

Consider `N=C(N)Nc1cnccn1`, for which the inhibition (in assay [8]; in assay [9]; at Plasminogen [10]) was below 50% throughout.

Consider `N=C(N)Nc1cccnc1`, for which the inhibition (in [8]; in [9]; against Plasminogen [10]) was below 50% each time.

Compound `NC(N)=Nc1ncccc1O` displayed a Ki in [7] of 147 µM.

With `N=C(N)Nc1ccncn1`, the inhibition (in [8]; in [9]; against Plasminogen [10]) was below 50% throughout.

With `Cc1c(Cl)cnc(N=C(N)N)c1Cl`, the Ki at Plasminogen [11] was 176 µM. The inhibition in assay [2] was below 50%.

As to `N=C(N)Nc1ccc(Cl)cc1`, on Plasminogen [11], the Ki is below 50 µM. This compound also registered an inhibition in assay [6] below 50%.

Take `NC(N)=Nc1ncc(Cl)cc1Br`: in [12], the Ki was 272 µM.

For the compound `N=C(N)Nc1ccccn1`, the inhibition (in [8]; against Plasminogen [10]) was below 50% each time. For the same compound, the Ki in [7] worked out at 29.5 µM.

In turn, `Cc1ccc(NC(=N)N)nc1` yielded a Ki in [7] of 32.3 µM. In addition, the inhibition in [2] was below 50%.

Take `NC(N)=Nc1ncc(Cl)cc1Cl`: the Ki in assay [7] was 5.47 µM.

As to `N=C(N)Nc1ncccn1`, the inhibition (in assay [8]; against Plasminogen [10]) was below 50% throughout. The same compound had a Ki in assay [7] of 292 µM.

At Plasminogen [1], `N=C(N)Nc1ncc(Cl)cc1Br` returned an inhibition below 50%.

On Plasminogen [11], `COc1cccnc1N=C(N)N` gave a Ki below 232 µM. In [2], this compound yielded an inhibition below 50%.

On Plasminogen [11], `N=C(N)Nc1ccncc1` displayed an inhibitory constant (Ki) of 16.9 µM. Further, the inhibition in assay [13] and in assay [14] was below 50% throughout.

On to `N=C(N)Nc1ncc(C(F)(F)F)cc1Cl`, for which the inhibition (against Plasminogen [1]; in assay [2]) was below 50% each time.

Turning to `COc1ccnc(NC(=N)N)c1`, the inhibition (at Plasminogen [1]; in assay [2]) was below 50% throughout.

Take `NC(N)=Nc1ncc(Br)cc1Cl`: the affinity in assay [7], expressed as Ki, was 2.9 µM.

With `N=C(N)Nc1ccc(Br)cn1`, the Ki in assay [7] was found to be 3.13 µM. For the same compound, the inhibition (against Plasminogen [1]; in assay [2]) was below 50% each time.

On to `N=C(N)Nc1cc(-c2ccccc2)ccn1`, for which the inhibition against Plasminogen [1] was below 50%; in [2], 54%.

Consider `Cc1cccnc1N=C(N)N`, for which the inhibition (in [6]; at Plasminogen [1]) was below 50% each time. Also, in assay [7], the Ki is 37.7 µM.

For `Cc1cccc(N=C(N)N)n1`, in [7], the Ki worked out at 173 µM. Besides, the inhibition (on Plasminogen [1]; in assay [2]) was below 50% in each case.
